Source: PubChem BioAssay (NCI)
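Results reflect a 48-hour exposure of cells in 96-well plates to compound at five concentrations. At the TGI there is no net growth.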

Legend:
Experiment in all cases: growth of human tumour cells (NCI), 48 h
BT-549 breast = system: BT-549 breast
CCRF-CEM leukemia = system: CCRF-CEM leukemia
SN12C renal = system: SN12C renal
A549 NSCLC = system: A549 NSCLC
IGROV1 ovarian = system: IGROV1 ovarian
SK-OV-3 ovarian = system: SK-OV-3 ovarian
M14 melanoma = system: M14 melanoma
PC-3 prostate = system: PC-3 prostate
OVCAR-3 ovarian = system: OVCAR-3 ovarian
786-0 renal = system: 786-0 renal
OVCAR-5 ovarian = system: OVCAR-5 ovarian
UACC-62 melanoma = system: UACC-62 melanoma
KM12 colon = system: KM12 colon
COLO 205 colon = system: COLO 205 colon
SF-295 CNS = system: SF-295 CNS
SR leukemia = system: SR leukemia
UACC-257 melanoma = system: UACC-257 melanoma
HOP-62 NSCLC = system: HOP-62 NSCLC
SK-MEL-5 melanoma = system: SK-MEL-5 melanoma
RXF 393 renal = system: RXF 393 renal
NCI-H23 lung = system: NCI-H23 lung
NCI-H226 lung = system: NCI-H226 lung
SF-539 CNS = system: SF-539 CNS
OVCAR-8 ovarian = system: OVCAR-8 ovarian
K-562 leukemia = system: K-562 leukemia
HCT-15 colon = system: HCT-15 colon
HCT-116 colon = system: HCT-116 colon
HOP-92 NSCLC = system: HOP-92 NSCLC
MCF7 breast = system: MCF7 breast
EKVX NSCLC = system: EKVX NSCLC
U251 CNS = system: U251 CNS
HL-60(TB) leukemia = system: HL-60(TB) leukemia
MOLT-4 leukemia = system: MOLT-4 leukemia
HT29 colon = system: HT29 colon
ACHN renal = system: ACHN renal
MDA-MB-435 = system: MDA-MB-435
TK-10 renal = system: TK-10 renal
SK-MEL-2 melanoma = system: SK-MEL-2 melanoma
UO-31 renal = system: UO-31 renal
SF-268 CNS = system: SF-268 CNS
SW-620 colon = system: SW-620 colon
NCI-H522 lung = system: NCI-H522 lung
SNB-19 CNS = system: SNB-19 CNS
LOX IMVI melanoma = system: LOX IMVI melanoma
NCI/ADR-RES ovarian = system: NCI/ADR-RES ovarian
OVCAR-4 ovarian = system: OVCAR-4 ovarian
MDA-N = system: MDA-N
SNB-75 CNS = system: SNB-75 CNS
NCI-H460 lung = system: NCI-H460 lung
MDA-MB-231 breast = system: MDA-MB-231 breast
HCC-2998 colon = system: HCC-2998 colon
CAKI-1 renal = system: CAKI-1 renal
A498 renal = system: A498 renal
DU-145 prostate = system: DU-145 prostate
RPMI-8226 leukemia = system: RPMI-8226 leukemia
HS 578T breast = system: HS 578T breast
MALME-3M melanoma = system: MALME-3M melanoma
SK-MEL-28 melanoma = system: SK-MEL-28 melanoma

In the case of CN(C)C1(c2cc3ccccc3s2)CCCCC1, the TGI (BT-549 breast) is reported as greater than 100 µM, the TGI (CCRF-CEM leukemia) is reported as 0.0223 µM and the TGI (SN12C renal) is reported as greater than 100 µM. The TGI (A549 NSCLC) was greater than 100 µM, the TGI (IGROV1 ovarian) was greater than 100 µM and the TGI (SK-OV-3 ovarian) was greater than 100 µM. It also gave a TGI (M14 melanoma) of 35.7 µM, a TGI (PC-3 prostate) greater than 100 µM and a TGI (OVCAR-3 ovarian) greater than 100 µM. For the same molecule, the TGI (786-0 renal) was 49.8 µM, the TGI (OVCAR-5 ovarian) was greater than 100 µM and the TGI (UACC-62 melanoma) was 60.6 µM. It also gave a TGI (KM12 colon) greater than 100 µM, a TGI (COLO 205 colon) greater than 100 µM and a TGI (SF-295 CNS) greater than 100 µM. The TGI (SR leukemia) was 46.5 µM, the TGI (UACC-257 melanoma) was 80.4 µM and the TGI (HOP-62 NSCLC) was greater than 100 µM. It also gave a TGI (SK-MEL-5 melanoma) of 33.3 µM, a TGI (RXF 393 renal) of 84.6 µM and a TGI (NCI-H23 lung) greater than 100 µM. It also gave a TGI (NCI-H226 lung) greater than 100 µM, a TGI (SF-539 CNS) greater than 100 µM and a TGI (OVCAR-8 ovarian) greater than 100 µM. The TGI (K-562 leukemia) was 65.8 µM, the TGI (HCT-15 colon) was greater than 100 µM and the TGI (HCT-116 colon) was greater than 100 µM. It also gave a TGI (HOP-92 NSCLC) of 63.6 µM, a TGI (MCF7 breast) greater than 100 µM and a TGI (EKVX NSCLC) greater than 100 µM. It also gave a TGI (U251 CNS) greater than 100 µM, a TGI (HL-60(TB) leukemia) of 0.0658 µM and a TGI (MOLT-4 leukemia) greater than 100 µM. For the same molecule, the TGI (HT29 colon) was greater than 100 µM, the TGI (ACHN renal) was greater than 100 µM and the TGI (MDA-MB-435) was greater than 100 µM. For the same molecule, the TGI (TK-10 renal) was greater than 100 µM, the TGI (SK-MEL-2 melanoma) was 47.7 µM and the TGI (UO-31 renal) was greater than 100 µM. It also gave a TGI (SF-268 CNS) of 52 µM, a TGI (SW-620 colon) greater than 100 µM and a TGI (NCI-H522 lung) of 41.7 µM. It also gave a TGI (SNB-19 CNS) greater than 100 µM, a TGI (LOX IMVI melanoma) of 60.9 µM and a TGI (NCI/ADR-RES ovarian) greater than 100 µM. For the same molecule, the TGI (OVCAR-4 ovarian) was greater than 100 µM, the TGI (MDA-N) was greater than 100 µM and the TGI (SNB-75 CNS) was greater than 100 µM. For the same molecule, the TGI (NCI-H460 lung) was greater than 100 µM, the TGI (MDA-MB-231 breast) was greater than 100 µM and the TGI (HCC-2998 colon) was 57 µM. For the same molecule, the TGI (CAKI-1 renal) was greater than 100 µM, the TGI (A498 renal) was greater than 100 µM and the TGI (DU-145 prostate) was greater than 100 µM.

Cn1c(=O)oc2cc(C(=S)N3CCCCC3)ccc21 was tested, and the TGI (BT-549 breast) was greater than 100 µM, the TGI (CCRF-CEM leukemia) was greater than 100 µM and the TGI (SN12C renal) was greater than 100 µM. The TGI (IGROV1 ovarian) was greater than 100 µM, the TGI (RPMI-8226 leukemia) was greater than 100 µM and the TGI (SK-OV-3 ovarian) was greater than 100 µM. For the same molecule, the TGI (M14 melanoma) was greater than 100 µM, the TGI (PC-3 prostate) was greater than 100 µM and the TGI (OVCAR-3 ovarian) was greater than 100 µM. For the same molecule, the TGI (786-0 renal) was greater than 100 µM, the TGI (OVCAR-5 ovarian) was greater than 100 µM and the TGI (UACC-62 melanoma) was greater than 100 µM. The TGI (KM12 colon) was greater than 100 µM, the TGI (COLO 205 colon) was greater than 100 µM and the TGI (SF-295 CNS) was greater than 100 µM. It also gave a TGI (SR leukemia) greater than 100 µM, a TGI (UACC-257 melanoma) greater than 100 µM and a TGI (HOP-62 NSCLC) greater than 100 µM. The TGI (SK-MEL-5 melanoma) was greater than 100 µM, the TGI (RXF 393 renal) was greater than 100 µM and the TGI (NCI-H23 lung) was greater than 100 µM. For the same molecule, the TGI (NCI-H226 lung) was greater than 100 µM, the TGI (SF-539 CNS) was greater than 100 µM and the TGI (OVCAR-8 ovarian) was greater than 100 µM. The TGI (K-562 leukemia) was greater than 100 µM, the TGI (HCT-15 colon) was greater than 100 µM and the TGI (HCT-116 colon) was greater than 100 µM. The TGI (HS 578T breast) was greater than 100 µM, the TGI (MCF7 breast) was greater than 100 µM and the TGI (EKVX NSCLC) was greater than 100 µM. For the same molecule, the TGI (U251 CNS) was greater than 100 µM, the TGI (HL-60(TB) leukemia) was greater than 100 µM and the TGI (MOLT-4 leukemia) was greater than 100 µM. It also gave a TGI (HT29 colon) greater than 100 µM, a TGI (ACHN renal) greater than 100 µM and a TGI (MDA-MB-435) greater than 100 µM. The TGI (TK-10 renal) was greater than 100 µM, the TGI (SK-MEL-2 melanoma) was greater than 100 µM and the TGI (MALME-3M melanoma) was greater than 100 µM. It also gave a TGI (SF-268 CNS) greater than 100 µM, a TGI (SW-620 colon) greater than 100 µM and a TGI (SNB-19 CNS) greater than 100 µM. It also gave a TGI (LOX IMVI melanoma) greater than 100 µM, a TGI (NCI/ADR-RES ovarian) greater than 100 µM and a TGI (MDA-N) greater than 100 µM. For the same molecule, the TGI (SNB-75 CNS) was greater than 100 µM, the TGI (NCI-H460 lung) was greater than 100 µM and the TGI (SK-MEL-28 melanoma) was greater than 100 µM. For the same molecule, the TGI (MDA-MB-231 breast) was greater than 100 µM, the TGI (CAKI-1 renal) was greater than 100 µM and the TGI (A498 renal) was greater than 100 µM. It also gave a TGI (DU-145 prostate) greater than 100 µM.
